{"source": "patent US20120029187A1", "about": "“HALOALKYLSULFONANILIDE DERIVATIVE” (Nissan Chemical Industries, Ltd., priority 2009, published 2012)", "format_in_all_cases": "in vivo", "key": {"[1]": {"system": "barnyardgrass", "assay": "Comparative Example 1: herbicidal effects in preemergence treatment on barnyardgrass under submerged conditions", "settings": "applied to water surface on the day of seeding, three weeks after application", "excerpt": "Comparative Example 1 Test on the Herbicidal Effects in Preemergence Treatment on Barnyardgrass Under Submerged Conditions Alluvial soil was put in 1/30000-are styrol cups and admixed with water so that it was submerged at a depth of 4 cm. In each cup, seeds of barnyardgrass were sown, and on the same day as the seeding, emulsifiable concentrates containing compounds of the present invention formulated in accordance with Formulation Example 2 were applied to the water surfaces at predetermined doses after diluted with water. The cups were placed in a greenhouse at 25 to 30° C. to grow the plants. Three weeks after the application, the herbicidal effects against barnyardgrass were determined on the following evaluation scale. The symbol A in the table means barnyardgrass."}, "[2]": {"system": "barnyardgrass", "assay": "Comparative Example 2: herbicidal effects on barnyardgrass during the vegetation period under submerged conditions", "settings": "applied to water surface at the 2- or 2.5-leaf stage, three weeks after application", "description": "Comparative Example 2 Test on the Herbicidal Effects on Barnyardgrass During the Vegetation Period Under Submerged Conditions Alluvial soil was put in 1/30000-are styrol cups and admixed with water so that it was submerged at a depth of 4 cm. In each cup, seeds of barnyardgrass were sown, and the cups were placed in a greenhouse at 25 to 30° C. to grow the plants. When the barnyardgrass reached the 2- or 2.5-leaf stage, emulsifiable concentrates containing compounds of the present invention and the comparative compounds formulated in accordance with Formulation Example 2 were applied to the water surfaces at predetermined doses after diluted with water. Three weeks after the application, the herbicidal effects were determined on the same evaluation scale as in Test Example 1. The symbol A in the table is the same as defined above."}, "[3]": {"system": "Italian ryegrass", "assay": "Test Example 4: herbicidal effect in foliage treatment", "settings": "dose 6.3 g/a, three weeks after application", "method_in_brief": "(§1)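 Sowing in sterilized diluvial soil, ~1.5 cm cover; growth 14 d, 25–30° C greenhouse; foliar spray of water-diluted EC at predetermined g/a; scoring 3 wk later on graded scale.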"}, "[4]": {"system": "common lambsquater", "assay": "Test Example 4: herbicidal effect in foliage treatment", "settings": "dose 6.3 g/a, three weeks after application", "method_in_brief": "as §1"}, "[5]": {"system": "posumbu knotweed", "assay": "Test Example 4: herbicidal effect in foliage treatment", "settings": "dose 6.3 g/a, three weeks after application", "method_in_brief": "as §1"}, "[6]": {"system": "common ragweed", "assay": "Test Example 4: herbicidal effect in foliage treatment", "settings": "dose 6.3 g/a, three weeks after application", "method_in_brief": "as §1"}, "[7]": {"system": "velvetleaf", "assay": "Test Example 4: herbicidal effect in foliage treatment", "settings": "dose 6.3 g/a, three weeks after application", "method_in_brief": "as §1"}, "[8]": {"system": "beadstraw", "assay": "Test Example 4: herbicidal effect in foliage treatment", "settings": "dose 6.3 g/a, three weeks after application", "method_in_brief": "as §1"}, "[9]": {"system": "wild oat", "assay": "Test Example 4: herbicidal effect in foliage treatment", "settings": "dose 6.3 g/a, three weeks after application", "method_in_brief": "as §1"}, "[10]": {"system": "giant foxtail", "assay": "Test Example 4: herbicidal effect in foliage treatment", "settings": "dose 6.3 g/a, three weeks after application", "method_in_brief": "as §1"}, "[11]": {"system": "large crabgrass", "assay": "Test Example 4: herbicidal effect in foliage treatment", "settings": "dose 6.3 g/a, three weeks after application", "method_in_brief": "as §1"}, "[12]": {"system": "common chickweed", "assay": "Test Example 4: herbicidal effect in foliage treatment", "settings": "dose 6.3 g/a, three weeks after application", "method_in_brief": "as §1"}, "[13]": {"system": "water foxtail", "assay": "Test Example 4: herbicidal effect in foliage treatment", "settings": "dose 6.3 g/a, three weeks after application", "method_in_brief": "as §1"}, "[14]": {"system": "redroot pigweed", "assay": "Test Example 4: herbicidal effect in foliage treatment", "settings": "dose 6.3 g/a, three weeks after application", "method_in_brief": "as §1"}, "[15]": {"system": "barnyardgrass", "assay": "Test Example 4: herbicidal effect in foliage treatment", "settings": "dose 6.3 g/a, three weeks after application", "method_in_brief": "as §1"}, "[16]": {"system": "Italian ryegrass", "assay": "Test Example 3: herbicidal effects in soil treatment", "settings": "dose 6.3 g/a", "method_in_brief": "(§2)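 Seeds were sown in sterilized diluvial soil and covered with about 1.5 cm of soil. Compounds, formulated as emulsifiable concentrates and diluted with water, were sprayed evenly over the soil surface at set doses in g/a. Herbicidal effect was scored on a rating scale three weeks later.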"}, "[17]": {"system": "common lambsquater", "assay": "Test Example 3: herbicidal effects in soil treatment", "settings": "dose 6.3 g/a", "method_in_brief": "as §2"}, "[18]": {"system": "posumbu knotweed", "assay": "Test Example 3: herbicidal effects in soil treatment", "settings": "dose 6.3 g/a", "method_in_brief": "as §2"}, "[19]": {"system": "common ragweed", "assay": "Test Example 3: herbicidal effects in soil treatment", "settings": "dose 6.3 g/a", "method_in_brief": "as §2"}, "[20]": {"system": "velvetleaf", "assay": "Test Example 3: herbicidal effects in soil treatment", "settings": "dose 6.3 g/a", "method_in_brief": "as §2"}, "[21]": {"system": "wild oat", "assay": "Test Example 3: herbicidal effects in soil treatment", "settings": "dose 6.3 g/a", "method_in_brief": "as §2"}, "[22]": {"system": "giant foxtail", "assay": "Test Example 3: herbicidal effects in soil treatment", "settings": "dose 6.3 g/a", "method_in_brief": "as §2"}, "[23]": {"system": "large crabgrass", "assay": "Test Example 3: herbicidal effects in soil treatment", "settings": "dose 6.3 g/a", "method_in_brief": "as §2"}, "[24]": {"system": "common chickweed", "assay": "Test Example 3: herbicidal effects in soil treatment", "settings": "dose 6.3 g/a", "method_in_brief": "as §2"}, "[25]": {"system": "water foxtail", "assay": "Test Example 3: herbicidal effects in soil treatment", "settings": "dose 6.3 g/a", "method_in_brief": "as §2"}, "[26]": {"system": "barnyardgrass", "assay": "Test Example 3: herbicidal effects in soil treatment", "settings": "dose 6.3 g/a", "method_in_brief": "as §2"}}, "data": [{"smiles": "CC(C)COC(=O)N(c1ccccc1CN1COCCC1=O)S(=O)(=O)C(F)(F)F", "note": "[II-3]", "values": [{"measurement": "herbicidal effect, A (barnyardgrass)", "setting": "[1]; dose 0.16 g/a", "result": "5 (mortality of 90% or above (nearly complete death))"}, {"measurement": "herbicidal effect, A (barnyardgrass)", "setting": "[1]; dose 0.64 g/a", "result": "5 (mortality of 90% or above (nearly complete death))"}, {"measurement": "herbicidal effect, A (barnyardgrass)", "setting": "[1]; dose 2.52 g/a", "result": "5 (mortality of 90% or above (nearly complete death))"}, {"measurement": "herbicidal effect, A (barnyardgrass)", "setting": "[2]; dose 0.16 g/a", "result": "0 (mortality of less than 5% (almost ineffective))"}, {"measurement": "herbicidal effect, A (barnyardgrass)", "setting": "[2]; dose 0.64 g/a", "result": "3 (mortality of at least 40% and less than 70%)"}, {"measurement": "herbicidal effect, A (barnyardgrass)", "setting": "[2]; dose 2.52 g/a", "result": "5 (mortality of 90% or above (nearly complete death))"}, {"measurement": "H: Italian ryegrass, herbicidal effect", "setting": "[3]", "result": "3 (mortality of at least 40% and less than 70%)"}, {"measurement": "L: common lambsquater, herbicidal effect", "setting": "[4]", "result": "4 (mortality of at least 70% and less than 90%)"}, {"measurement": "M: posumbu knotweed, herbicidal effect", "setting": "[5]", "result": "0 (mortality of less than 5% (almost ineffective))"}, {"measurement": "J: common ragweed, herbicidal effect", "setting": "[6]", "result": "2 (mortality of at least 20% and less than 40%)"}, {"measurement": "I: velvetleaf, herbicidal effect", "setting": "[7]", "result": "5 (mortality of 90% or above (nearly complete death))"}, {"measurement": "O: beadstraw, herbicidal effect", "setting": "[8]", "result": "3 (mortality of at least 40% and less than 70%)"}, {"measurement": "F: wild oat, herbicidal effect", "setting": "[9]", "result": "0 (mortality of less than 5% (almost ineffective))"}, {"measurement": "E: giant foxtail, herbicidal effect", "setting": "[10]", "result": "5 (mortality of 90% or above (nearly complete death))"}, {"measurement": "D: large crabgrass, herbicidal effect", "setting": "[11]", "result": "5 (mortality of 90% or above (nearly complete death))"}, {"measurement": "N: common chickweed, herbicidal effect", "setting": "[12]", "result": "3 (mortality of at least 40% and less than 70%)"}, {"measurement": "G: water foxtail, herbicidal effect", "setting": "[13]", "result": "5 (mortality of 90% or above (nearly complete death))"}, {"measurement": "K: redroot pigweed, herbicidal effect", "setting": "[14]", "result": "0 (mortality of less than 5% (almost ineffective))"}, {"measurement": "A: barnyardgrass, herbicidal effect", "setting": "[15]", "result": "5 (mortality of 90% or above (nearly complete death))"}, {"measurement": "H: Italian ryegrass, herbicidal effect (evaluation scale 0-5)", "setting": "[16]", "result": "4 (mortality of at least 70% and less than 90%)"}, {"measurement": "L: common lambsquater, herbicidal effect (evaluation scale 0-5)", "setting": "[17]", "result": "1 (mortality of at least 5% and less than 20%)"}, {"measurement": "M: posumbu knotweed, herbicidal effect (evaluation scale 0-5)", "setting": "[18]", "result": "1 (mortality of at least 5% and less than 20%)"}, {"measurement": "J: common ragweed, herbicidal effect (evaluation scale 0-5)", "setting": "[19]", "result": "3 (mortality of at least 40% and less than 70%)"}, {"measurement": "I: velvetleaf, herbicidal effect (evaluation scale 0-5)", "setting": "[20]", "result": "4 (mortality of at least 70% and less than 90%)"}, {"measurement": "F: wild oat, herbicidal effect (evaluation scale 0-5)", "setting": "[21]", "result": "0 (mortality of less than 5% (almost ineffective))"}, {"measurement": "E: giant foxtail, herbicidal effect (evaluation scale 0-5)", "setting": "[22]", "result": "3 (mortality of at least 40% and less than 70%)"}, {"measurement": "D: large crabgrass, herbicidal effect (evaluation scale 0-5)", "setting": "[23]", "result": "5 (mortality of 90% or above (nearly complete death))"}, {"measurement": "N: common chickweed, herbicidal effect (evaluation scale 0-5)", "setting": "[24]", "result": "3 (mortality of at least 40% and less than 70%)"}, {"measurement": "G: water foxtail, herbicidal effect (evaluation scale 0-5)", "setting": "[25]", "result": "5 (mortality of 90% or above (nearly complete death))"}, {"measurement": "A: barnyardgrass, herbicidal effect (evaluation scale 0-5)", "setting": "[26]", "result": "5 (mortality of 90% or above (nearly complete death))"}]}]}
